From patent US8436210B2, “Amide compound and bacterial disease control agent for agricultural and horticultural use” (The University of Tokyo, priority 2007, dated 2013) come the findings set out here.

Assay [1] deals with Burkholderia glumae. Briefly: Test Example 1: toxoflavin (toxin) production by Burkholderia glumae in LB culture. The class given is cell-based. Conditions: for toxin doses (toxoflavin) produced by bacteria as concentration of compound increased: 0, 20, 40, 60, 80 or 100 μM, shake culturing 20 hours, LB medium, FIG. 1. The protocol: Burkholderia glumae was inoculated into an LB culture medium (produced by BD, Difco LB Broth: containing tryptone (10.0 g), yeast extract (5.0 g), and sodium chloride (10.0 g)), and cultured at 37° C. overnight. The broth thus obtained was subjected to bacterial collection using a centrifuge, and the collected bacteria were washed with an LB culture medium twice using a fresh LB culture medium each time. A fresh LB culture medium was added to the bacteria, and then Compound (1a-3) produced in Production Example 3 was added thereto in such a manner that its final concentration became a predetermined value (i.e., 0, 20, 40, 60, 80 or 100 μM), followed by shake culturing for 20 hours. The amount of toxoflavin produced by the bacteria in the broth was obtained by the following procedure.
Each broth was filtered by a 0.22-μm membrane filter, and 1 mL of the filtrate was isolated. One mL of chloroform was added to the filtrate, followed by extraction. The thus-obtained chloroform layer was concentrated under reduced pressure, and an 80% (V/V) aqueous methanol solution was added to and dissolved in the residue. The absorbance (at 260 nm) of the solution was measured, and the toxin doses were calculated from the calibration curve, which was obtained using a chemically synthesized standard toxin.
The same test was conducted as a comparative test using the compound (comparative compound) shown by the formula below disclosed in Patent Document 1.

Assay [2] has as its system Burkholderia glumae. Kind of assay: Test Example 3: onset of Burkholderia glumae infection on rice sprayed with test liquid. The class given is in vivo. The settings on record: for percentage of flower clusters with score 0: score 0 = less than 0.1% onset; for percentage of flower clusters with score 0 / percentage of flower clusters with score 1 / percentage of flower clusters with score 2 / percentage of flower clusters with score 3 / percentage of flower clusters with score 4 / percentage of flower clusters with score 5: Korean rice (Milyang 23), 7 days, infection broth sprayed 1 h after treatment; for percentage of flower clusters with score 1: score 1 = 0.1% to 20% onset; for percentage of flower clusters with score 2: score 2 = 20% to 40% onset; for percentage of flower clusters with score 3: score 3 = 40% to 60% onset; for percentage of flower clusters with score 4: score 4 = 60% to 80% onset; for percentage of flower clusters with score 5: score 5 = 80% to 100% onset. The protocol: Each test liquid (10 mL) was sprayed onto Korean rice ([…] 23) raised in a hothouse until the flowering stage. The broth for infection was sprayed onto the rice one hour after the application of the test liquid. After cultivation for seven days, the onset of Burkholderia glumae infection on the rice was evaluated in the same manner as in Test Example 2. The same evaluation was conducted as the comparative test in the same manner except that water was used instead of the test liquid. Further, the same evaluation was conducted to serve as a blank using water instead of both the test liquid and the broth for infection.

Assay [3] deals with Burkholderia glumae. Briefly: Test Example 2: onset of Burkholderia glumae infection on rice sprayed with test liquid. The class given is in vivo. Conditions: for percentage of flower clusters with score 0 / percentage of flower clusters with score 1 / percentage of flower clusters with score 2 / percentage of flower clusters with score 3 / percentage of flower clusters with score 4 / percentage of flower clusters with score 5: Korean rice (Milyang 23), 7 days; for percentage of flower clusters with score 1: score 1 = 0.1% to 20% onset; for percentage of flower clusters with score 2: score 2 = 20% to 40% onset; for percentage of flower clusters with score 3: score 3 = 40% to 60% onset; for percentage of flower clusters with score 4: score 4 = 60% to 80% onset; for percentage of flower clusters with score 5: score 5 = 80% to 100% onset. The protocol:
[…] In a separate procedure, Burkholderia glumae were seeded to an LB culture medium and cultured overnight at 37° C., preparing an broth for infection.
Each test liquid (10 mL) was sprayed onto Korean rice (Milyang 23) raised in a hothouse until the flowering stage. The broth for infection was sprayed onto the rice one hour after the application of the test liquid. After cultivation for seven days, the onset of Burkholderia glumae infection on the rice was evaluated.
The evaluation was conducted by picking an ear from each plant, making a total of three ears. In each flower cluster (grain), the percentage of the portion that suffered from the onset of infection (i.e., the portion that turned brown) caused by the toxoflavin produced by Burkholderia glumae was visually observed and scored based on the scale shown below. The percentage of the total flower clusters was obtained and scored to indicate the onset of the infection.
The percentage that suffered from the onset of infection:
Not less than 0.1% and not greater than 20%: 1
Not less than 20% and not greater than 40%: 2
Not less than 40% and not greater than 60%: 3
Not less than 60% and not greater than 80%: 4
In this evaluation, three flower clusters (grains) having the same conditions were prepared, and reproducibility was confirmed by repeating the same evaluation three times. The same evaluation was also conducted as a comparative test except that water was used instead of the test liquid. Further, the same evaluation was conducted to serve as a blank except that water was used instead of both the test liquid and the broth for infection.

As to `CCCCCCCC(=O)NC1=CC(=O)CCC1` [Compound (1a-3), N-(3-oxo-cyclohexen-1-yl)octanamide], the “toxin doses (toxoflavin) produced by bacteria as concentration of compound increased” value in assay [1] is given as “remarkably decreased”. Moreover, the “percentage of flower clusters with score 0” value was determined as 62% in assay [2] (50 μM spray); 82% in assay [2] (100 μM spray); 89% in assay [2] (150 μM spray); 73% in assay [3] (50 μM spray, score 0 = less than 0.1% of portion with onset of infection); 85% in assay [3] (100 μM spray, score 0 = less than 0.1% onset); 84% in assay [3] (150 μM spray, score 0 = less than 0.1% onset). The “percentage of flower clusters with score 1” value turned out to be 15% in assay [2] (50 μM spray); 9% in assay [2] (100 μM spray); 8% in assay [2] (150 μM spray); 20% in assay [3] (50 μM spray); 10% in assay [3] (100 μM spray); 9% in assay [3] (150 μM spray). For the same compound, the “percentage of flower clusters with score 2” value in assay [2] (50 μM spray) came out at 19%; in assay [2] (100 μM spray) it was 7%; in assay [2], 1%; in assay [3] (50 μM spray), 6%; in assay [3] (100 μM spray) it was 3%; in assay [3], 4%. Besides, the “percentage of flower clusters with score 3” value stood at 2% in assay [2] (50 μM spray); 1% in assay [2] (100 μM spray); 1% in assay [2] (150 μM spray); 1% in assay [3] (50 μM spray); 0% in assay [3] (100 μM spray); 1% in assay [3]. Also, the “percentage of flower clusters with score 4” value worked out at 1% in assay [2] (50 μM spray); 1% in assay [2] (100 μM spray); 1% in assay [2]; 0% in assay [3] (50 μM spray); 1% in assay [3] (100 μM spray); 1% in assay [3] (150 μM spray). Further, the “percentage of flower clusters with score 5” value in assay [2] (50 μM spray) was determined as 1%; in assay [2] (100 μM spray), 0%; in assay [2], 0%; in assay [3] (50 μM spray), 0%; in assay [3] (100 μM spray), 1%; in assay [3] (150 μM spray), 1%. Also, the “onset of Burkholderia glumae on rice” value is on record as “prevented” in assay [2] (test liquid sprayed onto rice, then broth for infection, Table 2 and FIG. 3); “prevented” in assay [3] (test liquid sprayed onto rice, then broth for infection, Table 1 and FIG. 2).
Consider `CCCCCCCCCC(=O)CC(=O)Nc1ccccc1O` [comparative compound], for which, in assay [1], the “toxin doses (toxoflavin) produced by bacteria as concentration of compound increased” value is on record as “almost no change”. Further, in assay [1] (statement in background referring to the Test Example), the “control effect on bacterial infections” value is recorded as “no control effect”.
